{
  "source": "patent US20200022963A1",
  "about": "“PHARMACEUTICAL COMPOSITION COMPRISING BETAHISTINE” (Otolanum AG, priority 2017, published 2020)",
  "key": {"[1]": {"assay": "Single-dose and repeat-dose intranasal toxicology study in beagle dogs (safety)", "format": "in vivo", "conditions": "dog", "excerpt": "Salivation after betahistine treatment was previously reported to occur in dogs, it was transient in nature in the present study and resolved quickly. Body weights, clinical pathology and gross necropsy findings were unremarkable."}, "[2]": {"assay": "Single ascending-dose clinical trial of intranasal betahistine in healthy volunteers (safety)", "format": "in vivo", "conditions": "human", "method": "(§1) The safety and pharmacokinetic profile of intranasal betahistine was further evaluated in a double-blind, randomized, placebo-controlled, single ascending-dose clinical trial involving a total of 32 healthy male and female volunteers. The main inclusion criteria were that subjects had to be aged 18-45 years and show a body mass index within the range of 18-30 kg/m^2. Subjects were required to fast for 8 hours prior to study drug administration and for 2 hours post-dose.\n(§2) The betahistine was supplied as a 50 and 200 mg/mL solution in a HDPE bottle and spray pump pack (Aptar Classic Line) that delivers an accurate 100 μL per actuation. The study drug was delivered into the right nostril of subjects while they were in a supine position. For the 5 and 20 mg doses, one application of 50 and 200 mg/mL, respectively, was needed, whereas for the 10 and 40 mg doses, two applications of 50 and 200 mg/mL were required."}, "[3]": {"assay": "Tolerability of intranasal betahistine in beagle dogs, Example 5", "format": "in vivo", "conditions": "dog", "description": "In this study, the pharmacokinetic profile of betahistine was evaluated after a single dose administration of betahistine in male and female beagle dogs (age 5-7 months; weight of 5-11 kg, within a range of 3 kg for each sex) for three routes of administration: oral, intranasal, and intravenous.\nOn Day 8 of the study, the animals that received oral BH at a dose of 12 mg/kg were administered the test betahistine composition intranasally at a dose of 40 mg betahistine dihydrochloride; the animals that received oral BH at a dose of 24 mg/kg were administered the test betahistine composition intranasally at a dose of 80 mg betahistine dihydrochloride; and the animals that received oral BH at a dose of 48 mg/kg were administered the test betahistine composition intranasally at a dose of 120 mg betahistine dihydrochloride. The test betahistine composition was delivered intranasally in a single dose via an Aptar nasal spray pump device at a total dose level of 40, 80 and 120 mg of betahistine dihydrochloride. Plasma samples were collected prior to dosing, and then at 5, 10, 20 and 30 min, 1, 2, 3, 6, 24 hours after dosing."}, "[4]": {"assay": "Oral betahistine study in healthy women, Barak et al.", "format": "in vivo", "conditions": "human, oral 48 mg (0.8 mg/kg), Barak et al. data", "description": "For the calculation of the relative bioavailability of intranasal betahistine compared to peroral betahistine, the area under the concentration-time curve (AUC) determined in Example 3 was compared to the AUC determined in a study with oral betahistine in healthy volunteers described in Barak et al. (Journal of Psychopharmacology, 2016, Vol. 30(3) 237-241). In brief, in this study, forty-eight healthy women were recruited and randomized to receive per os (i.e. orally) either betahistine 144 mg/day (48 mg t.i.d.) or matching placebo for 4 weeks. Their mean weight was 60.2 kg in the active-treated group (n=24) and 59.8 kg in the placebo group (n=24). Study medication (betahistine or matching placebo) was administered at least 30 minutes prior to eating. On Day 8, blood samples of 6 mL each were collected at 8 am, and 30, 60, 150 and 300 minutes thereafter. Plasma concentrations of betahistine and its metabolite 2-PAA were determined by high-performance liquidy chromatography."}, "[5]": {"assay": "Relative bioavailability of intranasal versus oral betahistine in humans, Example 6", "format": "in vivo", "conditions": "human"}, "[6]": {"conditions": "human, cited from earlier work"}, "[7]": {"conditions": "cited from earlier work"}, "[8]": {"assay": "Toxicokinetic assessment of plasma betahistine and 2-PAA after intranasal betahistine (LC-MS/MS), Example 2", "conditions": "both, beagle, dog, inhaled or intranasal", "method": "The safety and pharmacokinetic profile of intranasal betahistine was first evaluated in a single dose toxicology study in male and female beagle dogs (14-21 months of age, weight 8.2-11.8 kg). Both the vehicle and test article were delivered in a single dose via a nasal spray pump (Aptar Classic Line) with a delivery volume of 100 μL into both nostrils at total dose levels of 0 (vehicle), 4, 20 or 80 mg of betahistine dihydrochloride. Each treatment group was made up of 1 dog/sex.\nPlasma concentrations were measured with liquid chromatographic tandem mass spectrometry (LC-MS/MS; SCIEX API 5000 for betahistine and SCIEX API 4000 for 2-pyridylacetic acid (2-PAA)) with a validated method. Betahistine-^13CD3 dihydrochloride and 2-PAA-D4 hydrochloride served as internal standards. The standard calibration range—using a plasma sample volume of 0.05 mL—for betahistine was 0.05 to 50 ng/mL and for 2-PAA it was 1 to 1000 ng/mL. The limit of quantitation was 0.05 ng/mL for betahistine and 1.0 ng/mL for 2-PAA.\nIn case of betahistine, the method involved a liquid-liquid extraction; in case of 2-PAA it involved protein precipitation. For betahistine, plasma samples were extracted under basic conditions with an organic solvent; the organic phase was dried and reconstituted in reconstitution solvent. Approximately 0.1 mL of the aqueous layer was transferred into polypropylene vials for LC-MS/MS analysis. For 2-PAA, plasma samples were precipitated with a mixture of organic solvents, supernatant was diluted and 0.12 mL was transferred into polypropylene vials for LC-MS/MS analysis. Sample analysis was conducted using reversed phase chromatography."}, "[9]": {"assay": "Single ascending-dose clinical trial of intranasal betahistine in healthy volunteers (plasma pharmacokinetics, LC-MS/MS)", "conditions": "human; for half-life / AUC / AUC(0-inf) / AUC(0-t) / Cmax / Tmax: both, plasma, inhaled or intranasal", "method": "as §1, §2\nSerial blood samples were collected through 24 hours, following dosing on Day 1, at Day 4 and Day 7 to determine concentrations of betahistine and its main metabolite, 2-PAA in plasma. Plasma samples were assayed for BH content using validated procedures and methods. Blood samples (6 mL) were collected into tubes containing K2EDTA and were centrifuged at approximately 2000 g for 10 minutes at +4° C. and the resultant plasma transferred into 2 clean, labelled 2 mL cryovials. All plasma samples were stored at −70° C. or below until all samples had been collected and sent as a single batch for analysis. […] Concentrations were determined using liquid chromatographic tandem mass spectrometry (LC-MS/MS; SCIEX API 5000 for betahistine and SCIEX API 4000 for 2-PAA) with a validated method. Betahistine-^13CD3 dihydrochloride and 2-PAA-D4 hydrochloride served as internal standards. The standard calibration range—using a plasma sample volume of 0.2 and 0.1 mL, respectively—for betahistine was 10 to 800 pg/mL and for 2-PAA it was 2 to 2000 ng/mL. The limit of quantitation was 10 pg/mL for betahistine and 2.0 ng/mL for 2-PAA.\nIn case of betahistine, the method involved a liquid-liquid extraction; in case of 2-PAA it involved protein precipitation. For betahistine, plasma samples were extracted under basic conditions with an organic solvent; the organic phase was dried and reconstituted in reconstitution solvent. Approximately 0.120 mL of the aqueous layer was transferred into polypropylene vials for LC-MS/MS analysis. For 2-PAA plasma samples were precipitated with a mixture of organic solvents, supernatant was diluted and 0.120 mL was transferred into polypropylene vials for LC-MS/MS analysis. Sample analysis was conducted using reversed phase chromatography.\nFor each subject who completed the study, plasma concentration-time data of betahistine and 2-PAA were used for the calculation of the following pharmacokinetic parameters: • Cmax Maximum observed plasma concentration obtained directly from the data. • tmax Time to maximum observed concentration, taken directly from the data. If the maximum plasma concentration occurred at more than one time point, the first was chosen. • AUC0-last Area under the plasma concentration versus time curve, calculated using the linear trapezoidal rule from time 0 to time t, where t is the time of last quantifiable concentration. • λz Terminal elimination rate constant obtained from the slope of the line, fitted by linear least squares regression through the terminal points of the logarithmic concentration-time profiles (sometimes also referred to as kel). • AUC0-inf Area under the plasma concentration versus time curve from zero to infinity, calculated as (AUC0-t+Ct/λz), where Ct is the last quantifiable concentration. • t1/2 Apparent terminal half-life, calculated as t1/2=ln(2)/λz.\nDose normalized parameters Cmax/Dose and AUC/Dose were also calculated."}, "[10]": {"conditions": "intranasal single and repeated dose"}},
  "note": "Like-named read-outs stand apart in the source and are kept apart here.",
  "data": [
    {"smiles": "CNCCc1ccccn1", "note": "[betahistine]", "values": [
      {"measurement": "test article-related clinical signs", "setting": "[1]; intranasal 80 mg single dose and repeated dose 240 mg/day, transient", "value": "mild to moderate salivation"},
      {"measurement": "body weights, clinical pathology and gross necropsy findings", "setting": "[1]; [10]", "value": "unremarkable"},
      {"measurement": "microscopic findings", "setting": "[1]; [10]", "value": "No adverse treatment-related microscopic findings"},
      {"measurement": "hematology, biochemistry, urinalysis, vital signs and electrocardiogram assessments", "setting": "[2]; active- versus placebo-treated subjects", "value": "no differences"},
      {"measurement": "tolerability", "setting": "[2]; intranasal 5, 10, 20 and 40 mg", "value": "well tolerated"},
      {"measurement": "salivation", "setting": "[3]; highest concentration betahistine group", "value": "salivation was noted in most animals"},
      {"measurement": "sneezing", "setting": "[3]; highest dose level", "value": "2/8"},
      {"measurement": "AUC/Dose", "setting": "[4]", "value": "0.15 (h · ng/mL)/(mg/kg)"},
      {"measurement": "AUC/Dose", "setting": "[5]; intranasal 5 mg (0.07 mg/kg)", "value": "3.01 (h · ng/mL)/(mg/kg)"},
      {"measurement": "AUC/Dose", "setting": "[5]; intranasal 10 mg (0.15 mg/kg)", "value": "3.67 (h · ng/mL)/(mg/kg)"},
      {"measurement": "AUC/Dose", "setting": "[5]; intranasal 20 mg (0.29 mg/kg)", "value": "5.60 (h · ng/mL)/(mg/kg)"},
      {"measurement": "AUC/Dose", "setting": "[5]; intranasal 40 mg (0.57 mg/kg)", "value": "6.21 (h · ng/mL)/(mg/kg)"},
      {"measurement": "AUC", "setting": "[6]; oral 48 mg (0.8 mg/kg), Barak et al. data", "value": 0.121, "unit": "ng·h/mL"},
      {"measurement": "AUC(0-5h)", "setting": "[6]; oral 48 mg t.i.d., approximately 0.8 mg/kg, Day 8, Barak et al.", "value": 0.121, "unit": "ng·h/mL"},
      {"measurement": "plasma half-life", "setting": "[7]; betahistine, humans", "value": "180 to 240", "unit": "min"},
      {"measurement": "Cmax", "setting": "[7]; human, oral betahistine 24 mg, Chen et al.", "value": "< 0.5", "unit": "ng/mL"},
      {"measurement": "absolute bioavailability", "setting": "[7]; orally administered betahistine, estimated (SmPC)", "value": "around 1%"},
      {"measurement": "Tmax", "setting": "[8]", "value": 5, "unit": "min"},
      {"measurement": "Cmax", "setting": "[8]; 4 mg", "value": 26, "unit": "ng/mL"},
      {"measurement": "Cmax", "setting": "[8]; 20 mg", "value": 81, "unit": "ng/mL"},
      {"measurement": "Cmax", "setting": "[8]; 80 mg", "value": 248, "unit": "ng/mL"},
      {"measurement": "half-life", "setting": "[9]", "value": "< 60", "unit": "min"},
      {"measurement": "AUC", "setting": "[9]; 0.07 mg/kg", "value": 0.209, "unit": "ng·h/mL"},
      {"measurement": "AUC", "setting": "[9]; 0.15 mg/kg", "value": 0.533, "unit": "ng·h/mL"},
      {"measurement": "AUC", "setting": "[9]; 0.29 mg/kg", "value": 1.61, "unit": "ng·h/mL"},
      {"measurement": "AUC", "setting": "[9]; 0.57 mg/kg", "value": 3.53, "unit": "ng·h/mL"},
      {"measurement": "AUC(0-inf)", "setting": "[9]; 5 mg", "value": 0.277, "unit": "ng·h/mL"},
      {"measurement": "AUC(0-t)", "setting": "[9]; 5 mg", "value": 0.209, "unit": "ng·h/mL"},
      {"measurement": "Cmax", "setting": "[9]; 5 mg", "value": 0.638, "unit": "ng/mL"},
      {"measurement": "Tmax", "setting": "[9]; 5 mg", "value": 12.5, "unit": "min"},
      {"measurement": "half-life", "setting": "[9]; 5 mg", "value": 12.5, "unit": "min"},
      {"measurement": "AUC(0-inf)", "setting": "[9]; 10 mg", "value": 0.697, "unit": "ng·h/mL"},
      {"measurement": "AUC(0-t)", "setting": "[9]; 10 mg", "value": 0.533, "unit": "ng·h/mL"},
      {"measurement": "Cmax", "setting": "[9]; 10 mg", "value": 2.11, "unit": "ng/mL"},
      {"measurement": "Tmax", "setting": "[9]; 10 mg", "value": 10, "unit": "min"},
      {"measurement": "half-life", "setting": "[9]; 10 mg", "value": 53, "unit": "min"},
      {"measurement": "AUC(0-inf)", "setting": "[9]; 20 mg", "value": 1.63, "unit": "ng·h/mL"},
      {"measurement": "AUC(0-t)", "setting": "[9]; 20 mg", "value": 1.61, "unit": "ng·h/mL"},
      {"measurement": "Cmax", "setting": "[9]; 20 mg", "value": 4.11, "unit": "ng/mL"},
      {"measurement": "Tmax", "setting": "[9]; 20 mg", "value": 10, "unit": "min"},
      {"measurement": "half-life", "setting": "[9]; 20 mg", "value": 31.1, "unit": "min"},
      {"measurement": "AUC(0-inf)", "setting": "[9]; 40 mg", "value": 2.94, "unit": "ng·h/mL"},
      {"measurement": "AUC(0-t)", "setting": "[9]; 40 mg", "value": 3.53, "unit": "ng·h/mL"},
      {"measurement": "Cmax", "setting": "[9]; 40 mg", "value": 10.5, "unit": "ng/mL"},
      {"measurement": "Tmax", "setting": "[9]; 40 mg", "value": 7.5, "unit": "min"},
      {"measurement": "half-life", "setting": "[9]; 40 mg", "value": 55.6, "unit": "min"},
      {"measurement": "peak concentration in plasma", "setting": "[9]; intranasal 20 mg", "value": 4.1, "unit": "ng/mL"},
      {"measurement": "peak concentration in plasma", "setting": "[9]; intranasal 40 mg", "value": 10.5, "unit": "ng/mL"}
    ]}
  ]
}
